Where “and” joins values, the source holds several entries; their conditions need not be identical. Identical values can stand only once. Entries after “also recorded” stand apart in the source; their conditions may differ.
What was measured:
[1] = molecular target: T1, CYP2D6 (Homo sapiens, UniProt P10635); assay: Inhibition of CYP2D6 (metoprolol α-hydroxylation) by CK in HLMs; type: in vitro ADME
T1 construct: tissue Cypex Ltd. (U.K.); host or cells: pooled human liver microsomes
Experimental: (§1) The method was conducted according to our previous study with some modifications. The CYP isoform-specific probe reactions used were phenacetin O-deethylation (for CYP1A2), coumarin 7-hydroxylation (for CYP2A6), tolbutamide 4-hydroxylation (for CYP2C9), metoprolol α-hydroxylation (for CYP2D6), chlorzoxazone 6-hydroxylation (for CYP2E1),S-Mephenytoin 4-hydroxylation (for CYP2C19), and midazolam 1-hydroxylation (for CYP3A4). The kinetic study of CK was conducted with HLMs. A 0.2 mL incubation mixture that consisted of CK (as a substrate), the HLMs (0.5 mg/mL) or CYP isoforms (10 pmol), and 0.1 M sodium phosphate buffer (pH 7.4) was pre-warmed for 5 min at 37°C. The reaction was initiated by the addition of 1 mg/mL triphosphopyridine nucleotide (NADPH). All the reagents were dissolved in methanol, and the final solvent concentration in all incubations (including the controls) was 1%. The final incubations were performed in a shaking water bath (37°C) for 30 min. The reactions were stopped by adding 0.2 mL ice-cold acetonitrile, which contains irbesartan (114.9 ng/mL) as the internal standard. The samples were vortexed for 5 min. After centrifugation (12000×g for 10 min), the supernatants were transferred, and aliquots of 20 μL were injected into the HPLC-MS/MS system for analysis.
(§2) CK (10–100 μM) and a single CYP isoform-specific substrate (with a concentration similar to its corresponding Kmvalue) were used to determine the inhibitory effect of CK on specific CYP isoforms as described in detail previously. Substrates including phenacetin, coumarin, tolbutamide, metoprolol, chlorzoxazone, S-Mephenytoin, and midazolam were used at concentrations of 10, 5, 100, 7.5, 40, 100, and 5 μM, respectively. All incubation conditions were the same as mentioned above. The inhibitory effects on the CYP isoforms were investigated individually by incubating the HLMs in the absence or presence of CK. […]

[2] = test system: CYP3A4; design: method as in Hao et al.(2008); details: baculosomes, ref Hao et al.(2008); cited from earlier work
[3] = molecular target: T2, CYP1A2 (Homo sapiens, UniProt P05177); assay: Inhibition of CYP1A2 (phenacetin O-deethylation) by CK in HLMs; type: in vitro ADME
T2 construct: tissue Cypex Ltd. (U.K.); host or cells: pooled human liver microsomes
T2 sequence (P05177 1-516): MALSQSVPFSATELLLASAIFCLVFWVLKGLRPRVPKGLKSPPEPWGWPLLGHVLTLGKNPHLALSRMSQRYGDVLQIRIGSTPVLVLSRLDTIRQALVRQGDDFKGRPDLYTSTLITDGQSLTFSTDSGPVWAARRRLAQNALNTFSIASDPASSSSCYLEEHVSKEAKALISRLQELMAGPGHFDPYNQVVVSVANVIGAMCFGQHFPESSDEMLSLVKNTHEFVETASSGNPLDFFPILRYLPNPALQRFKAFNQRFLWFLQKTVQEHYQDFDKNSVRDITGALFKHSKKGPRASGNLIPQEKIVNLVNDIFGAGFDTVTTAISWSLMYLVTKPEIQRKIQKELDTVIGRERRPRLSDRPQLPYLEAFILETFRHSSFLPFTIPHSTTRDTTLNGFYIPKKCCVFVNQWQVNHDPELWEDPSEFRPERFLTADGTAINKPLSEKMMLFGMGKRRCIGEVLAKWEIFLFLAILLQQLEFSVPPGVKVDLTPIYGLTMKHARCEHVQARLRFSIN
Experimental: as §1, §2

[4] = molecular target: CYP3A4 (Homo sapiens, UniProt P08684); assay: Inhibition of CYP3A4 (midazolam 1-hydroxylation) by CK in HLMs; type: in vitro ADME; design: tissue Cypex Ltd. (U.K.); host or cells: pooled human liver microsomes
Chain of CYP3A4 (Homo sapiens, UniProt P08684) (P08684 whole entry): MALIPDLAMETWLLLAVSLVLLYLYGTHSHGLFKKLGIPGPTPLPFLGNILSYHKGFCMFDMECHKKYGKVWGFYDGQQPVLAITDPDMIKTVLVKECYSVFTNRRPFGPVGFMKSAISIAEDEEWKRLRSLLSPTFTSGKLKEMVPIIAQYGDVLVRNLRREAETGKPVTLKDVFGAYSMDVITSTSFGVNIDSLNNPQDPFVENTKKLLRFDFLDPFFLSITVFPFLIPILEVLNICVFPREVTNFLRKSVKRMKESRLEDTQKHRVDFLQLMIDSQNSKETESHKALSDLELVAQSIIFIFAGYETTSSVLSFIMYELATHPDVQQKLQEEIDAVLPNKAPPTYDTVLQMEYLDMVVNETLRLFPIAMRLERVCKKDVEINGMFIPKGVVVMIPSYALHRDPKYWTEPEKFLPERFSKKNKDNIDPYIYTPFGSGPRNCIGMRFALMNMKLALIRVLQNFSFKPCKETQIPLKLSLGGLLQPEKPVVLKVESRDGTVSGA
Experimental: as §1
CK (10–100 μM) and a single CYP isoform-specific substrate (with a concentration similar to its corresponding Kmvalue) were used to determine the inhibitory effect of CK on specific CYP isoforms as described in detail previously. Substrates including phenacetin, coumarin, tolbutamide, metoprolol, chlorzoxazone, S-Mephenytoin, and midazolam were used at concentrations of 10, 5, 100, 7.5, 40, 100, and 5 μM, respectively. All incubation conditions were the same as mentioned above. The inhibitory effects on the CYP isoforms were investigated individually by incubating the HLMs in the absence or presence of CK. The incubation solution with the solvent that was used to dissolve CK was regarded as the negative control, and the solutions containing the specific inhibitors mentioned above were considered the positive controls.
The inhibition data obtained from the pilot experiments were used as a guide to generate the appropriate probe substrate and test inhibitor concentrations for the determination of the Ki values for each CYP isoform. The isoform-specific probe substrate concentrations used were 25–200 μM tolbutamide for CYP2C9 and 5–50 μM midazolam for CYP3A4. The CK concentrations used were 10–100 μM.
When Ki>Ki’, the intersection was above the [I] axis in the plot of S/V against [I] and below it in the Dixon plot; the opposite was true if Ki<Ki’. In the special case where Ki = Ki’ (simple non-competitive inhibition), the intersections occurred on the [I] axis in both plots. The asymptotic cases of competitive and uncompetitive inhibition can be generated by inserting the conditions Ki’ to ∞ for competitive inhibition, or Ki to ∞ for uncompetitive inhibition.
As described in detail previously, to determine the major enzymes responsible for the CK metabolism in HLMs, the metabolic clearance rate of the incubation solution without any specific inhibitor for CK was considered as 100%. The effects of the specific inhibitors on the metabolic clearance rate of CK were evaluated with SPSS one-way analysis of variance (SPSS Inc., Chicago, IL, USA). P<0.05 was considered significant in all cases. The apparent kinetic parameters of CK (Km and Vmax) were determined by fitting the Michaelis–Menten equation using the GraphPad Prism Enzyme Kinetic 5 Demo software (GraphPad Co. Ltd, San Diego, CA, USA).

[5] = classified by IC50 according to Kong et al
[6] = CYP3A4 in HLMs, ketoconazole values ref 17

T1 sequence (P10635 whole entry): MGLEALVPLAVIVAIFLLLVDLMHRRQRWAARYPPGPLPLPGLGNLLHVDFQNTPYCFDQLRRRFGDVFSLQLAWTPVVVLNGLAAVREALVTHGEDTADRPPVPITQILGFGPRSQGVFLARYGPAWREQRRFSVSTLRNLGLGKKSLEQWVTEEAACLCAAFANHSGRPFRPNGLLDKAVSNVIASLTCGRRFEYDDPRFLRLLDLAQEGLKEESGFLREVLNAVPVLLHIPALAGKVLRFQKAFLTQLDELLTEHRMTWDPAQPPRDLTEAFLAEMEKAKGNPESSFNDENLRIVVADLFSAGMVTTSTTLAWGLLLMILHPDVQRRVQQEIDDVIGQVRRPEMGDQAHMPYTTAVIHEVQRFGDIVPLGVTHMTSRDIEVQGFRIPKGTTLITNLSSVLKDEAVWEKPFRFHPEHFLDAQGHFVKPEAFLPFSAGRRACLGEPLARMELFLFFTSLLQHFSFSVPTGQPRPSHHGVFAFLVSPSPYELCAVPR

CC(C)=CCC[C@](C)(OC1O[C@H](CO)[C@@H](O)[C@H](O)[C@H]1O)[C@H]1CC[C@]2(C)[C@@H]1[C@H](O)C[C@@H]1[C@@]3(C)CC[C@H](O)C(C)(C)[C@@H]3CC[C@]12C (stereo partly drawn) [CK, 20-O-β-(D-glucopyranosyl)-20(S)-protopanaxadiol]
inhibitory effect on the activity of CYP2D6 ([1]; HLMs, CK 10–100 μM): minimal; also recorded: negligible | IC50 ([1]; HLMs, metoprolol 7.5 μM, CK 10–100 μM): > 100 µM | inhibitor potency class for CYP2D6 [1, 5]: weak (weak, if IC50≥100 μg/mL or ≥50 μM) | CYP3A4 inhibition [2]: moderate | inhibitory effect on the activity of CYP1A2 ([3]; HLMs, CK 10–100 μM): minimal; also recorded: negligible | IC50 ([3]; HLMs, phenacetin 10 μM, CK 10–100 μM): > 100 µM | inhibitor potency class for CYP1A2 [3, 5]: weak (weak, if IC50≥100 μg/mL or ≥50 μM) | IC50 of CK higher than that of ketoconazole [4, 6]: 41-123 fold | Ki of CK higher than that of ketoconazole [4, 6]: 761 fold | type of inhibition of CYP3A4 ([4]; HLMs, Dixon and S/V versus [I] plots): noncompetitive | IC50 ([4]; HLMs, midazolam 1-hydroxylation, midazolam 5 μM, CK 10–100 μM): 9.83 µM and 9.82 µM | Ki ([4]; HLMs, midazolam 5–50 μM, secondary plot of Lineweaver–Burk slopes): 11.4 µM | inhibitor potency class for CYP3A4 [4, 5]: potent (potent, if IC50≤ 20 μg/mL or ≤10 μM)

Source: article PMC4742234, “Screening of Drug Metabolizing Enzymes for the Ginsenoside Compound K In Vitro: An Efficient Anti-Cancer Substance Originating from Panax Ginseng” (PLoS ONE, 2016)
